Experimental data as given in paper PMC10402865, “Fragment-based design, synthesis and biological evaluation of theophylline derivatives as ATAD2 inhibitors in BT-549 cells” (Journal of Enzyme Inhibition and Medicinal Chemistry, 2023).

How the values were obtained:
[1] = target: T1, ATAD2 recombinant bromodomain protein (Homo sapiens, UniProt Q6PL18); experiment: ATAD2 enzymatic assay by TR-FRET technology; assay type: binding; conditions: for IC50 / ATAD2 inhibitory activity, in words: TR-FRET; for IC50: mean ± SD, read-out: Kinase inhibitory activity (IC50, μM) ATAD2
T1 sequence (Q6PL18 980-1092 limits assumed): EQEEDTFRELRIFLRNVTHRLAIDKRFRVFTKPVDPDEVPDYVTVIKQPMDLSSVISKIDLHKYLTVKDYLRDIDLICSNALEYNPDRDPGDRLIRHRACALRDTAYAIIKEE
Procedure: The assay was performed by TR-FRET technology using recombinant bromodomain and BET Ligand[8]. The compounds were diluted with indicated folds in 5% DMSO in reaction buffer and 2 µl of the dilution was added to a 20 µl reaction so that the final concentration of DMSO is 0.5% in all of the reactions. The 20 µl reaction mixture consists of the ATAD2 recombinant bromodomain protein, the indicated amount of the inhibitor, ligand, and the reactive dyes. The reaction mixture was incubated for 3 h before reading the TR-FRET signal. Fluorescence signals for both the donor and acceptor dyes were measured using a Tecan Infinite M1000 plate reader. Binding experiments were performed in duplicate at each concentration and the data were analysed using GraphPad Prism.

BT-549 cells = experiment: Cell viability (MTT) assay, anti-proliferative activity; assay type: cell-based; conditions: Homo sapiens, MTT, 24 h, mean ± SD
Procedure: BT-549 cells were seeded at a density of 5 × 10^4 cells/ml in a 96-well plate. Following a 24-h incubation period, the cells were exposed to various concentrations of different compounds for the specified durations. Cell viability was evaluated using an MTT assay.

ATAD2 = conditions: cited from earlier work

| Structure (SMILES) | IC50 [1] | IC50 (BT-549 cells) | ATAD2 inhibitory activity, in words [1] | melting point | increase in ATAD2 activity compared to 19d [1] | IC50 (ATAD2) |
| --- | --- | --- | --- | --- | --- | --- |
| Cc1ccc(C(=O)NC2CCCCCC2)cc1NC(=O)Cn1cnc2c(=O)n(C)c(=O)n(C)c21 [Compound 19k, N-cycloheptyl-3–(2-(1,3-dimethyl-2,6-dioxo-1,2,3,6-tetrahydro-9H-purin-9-yl)acetamido)-4-methylbenzamide] | > 25 µM | > 30 µM |  | 194 to 196 °C |  |  |
| Cn1c(=O)c2[nH]cnc2n(C)c1=O [TS-2, theophylline] | 324 µM |  |  |  |  |  |
| Cc1cc2c(cc1N)n(C)c(=O)n2C [TS-1] | 411 µM |  |  |  |  |  |
| Cc1ccc(C(=O)NC2CCCC2)cc1NC(=O)Cn1cnc2c(=O)n(C)c(=O)n(C)c21 [Compound 19e, N-cyclopentyl-3–(2-(1,3-dimethyl-2,6-dioxo-1,2,3,6-tetrahydro-9H-purin-9-yl)acetamido)-4-methylbenzamide] | 1.78 ± 0.39 µM | 11.3 ± 2.7 µM |  | 211 to 213 °C | about a three-fold increase in activity |  |
| CO[C@H]1CNC[C@@H](OCC2CCC(F)(F)CC2)[C@@H]1Nc1ncc(-c2cncc(C)c2)c2cc(C)c(=O)[nH]c12 [GSK8814] |  |  |  |  |  | 0.059 µM |
| Cn1c(=O)c2ncn(CC(=O)Nc3cccc(C(=O)NC4CCCCC4)c3)c2n(C)c1=O [Compound 19g, N-cyclohexyl-3–(2-(1,3-dimethyl-2,6-dioxo-1,2,3,6-tetrahydro-9H-purin-9-yl)acetamido)benzamide] | 17.3 ± 3.92 µM | 25.1 ± 4.27 µM |  | 195 to 197 °C |  |  |
| Cn1c(=O)c2ncn(CC(=O)Nc3cccc(C(=O)NC4CCCCCC4)c3)c2n(C)c1=O [Compound 19j, N-cycloheptyl-3–(2-(1,3-dimethyl-2,6-dioxo-1,2,3,6-tetrahydro-9H-purin-9-yl)acetamido)benzamide] | > 25 µM | > 30 µM |  | 189 to 190 °C |  |  |
| Cc1ccc(C(=O)NC2CCCCC2)cc1NC(=O)Cn1cnc2c(=O)n(C)c(=O)n(C)c21 [Compound 19h, N-cyclohexyl-3–(2-(1,3-dimethyl-2,6-dioxo-1,2,3,6-tetrahydro-9H-purin-9-yl)acetamido)-4-methylbenzamide] | 19.7 ± 4.38 µM | 11.7 ± 2.46 µM |  | 199 to 201 °C |  |  |
| CC(C)N1CCc2c(nnn2CC(=O)Nc2ccc(Br)c(S(=O)(=O)N3CC[C@H](C)C3)c2)C1 [GSK232] |  |  |  |  |  | 0.032 µM |
| C[C@H]1CCN(S(=O)(=O)c2cc(NC(=O)CN3C(=O)N[C@@](C)(C4CC4)C3=O)ccc2Br)C1 [Compound 2] |  |  |  |  |  | 0.063 µM |
| Cn1c(=O)c2ncn(CC(=O)Nc3cccc(C(=O)NC4CC4)c3)c2n(C)c1=O [Compound 19a, N-cyclopropyl-3–(2-(1,3-dimethyl-2,6-dioxo-1,2,3,6-tetrahydro-9H-purin-9-yl)acetamido)benzamide] | 13.8 ± 2.57 µM | > 30 µM |  | 222 to 224 °C |  |  |
| Cn1c(=O)c2ncn(CC(=O)Nc3cccc(C(=O)NC4CCCC4)c3)c2n(C)c1=O [Compound 19d, N-cyclopentyl-3–(2-(1,3-dimethyl-2,6-dioxo-1,2,3,6-tetrahydro-9H-purin-9-yl)acetamido)benzamide] | 5.13 ± 0.72 µM | 17.9 ± 3.54 µM |  | 207 to 208 °C |  |  |
| Cc1nnc2c(NC3CCN(CC(C)(C)F)CC3)cc(C(=O)N3C4Cc5ccccc5C3C(C(C)C)NC4=O)nn12 (stereo not shown) [AZ4347] |  |  |  |  |  | 0.02 µM |

Second part, led by results:

| IC50 [1] | IC50 (BT-549 cells) | ATAD2 inhibitory activity, in words [1] | melting point | increase in ATAD2 activity compared to 19d [1] | Structure (SMILES) | IC50 (ATAD2) |
| --- | --- | --- | --- | --- | --- | --- |
| > 25 µM | > 30 µM |  |  |  | COc1ccc(C(=O)N2CCS(=O)(=O)CC2)cc1NC(=O)Cn1cnc2c(=O)n(C)c(=O)n(C)c21 [Compound 15f, 2–(1,3-dimethyl-2,6-dioxo-1,2,3,6-tetrahydro-9H-purin-9-yl)-N-(5–(1,1-dioxidothiomorpholine-4-carbonyl)-2-methoxyphenyl)acetamide] |  |
| 21.2 ± 3.17 µM | > 30 µM | weak inhibition potency | 266 to 268 °C |  | Cn1c(=O)c2ncn(CC(=O)Nc3cccc(C(=O)N4CCOCC4)c3)c2n(C)c1=O [Compound 15g, 2–(1,3-dimethyl-2,6-dioxo-1,2,3,6-tetrahydro-9H-purin-9-yl)-N-(3-(morpholine-4-carbonyl)phenyl)acetamide] |  |
| 14.8 ± 1.78 µM | > 30 µM | weak inhibitory activities against ATAD2 | 257 to 258 °C |  | COc1ccc(C(=O)N2CCSCC2)cc1NC(=O)Cn1cnc2c(=O)n(C)c(=O)n(C)c21 [Compound 15c, 2–(1,3-dimethyl-2,6-dioxo-1,2,3,6-tetrahydro-9H-purin-9-yl)-N-(2-methoxy-5-(thiomorpholine-4-carbonyl)phenyl)acetamide] |  |
| 12.3 ± 3.06 µM | 22 ± 3.35 µM |  | 185 to 187 °C |  | COc1ccc(C(=O)NC2CCCCC2)cc1NC(=O)Cn1cnc2c(=O)n(C)c(=O)n(C)c21 [Compound 19i, N-cyclohexyl-3–(2-(1,3-dimethyl-2,6-dioxo-1,2,3,6-tetrahydro-9H-purin-9-yl)acetamido)-4-methoxybenzamide] |  |
| > 25 µM | > 30 µM |  | 224 to 226 °C |  | Cn1c(=O)c2ncn(CC(=O)Nc3cccc(C(=O)N4CCS(=O)(=O)CC4)c3)c2n(C)c1=O [Compound 15d, 2–(1,3-dimethyl-2,6-dioxo-1,2,3,6-tetrahydro-9H-purin-9-yl)-N-(3–(1,1-dioxidothiomorpholine-4-carbonyl)phenyl)acetamide] |  |
| > 25 µM | > 30 µM |  | 265 to 267 °C |  | Cn1c(=O)c2ncn(CC(=O)Nc3cccc(C(=O)N4CCOCC4)c3F)c2n(C)c1=O [Compound 15k, 2–(1,3-dimethyl-2,6-dioxo-1,2,3,6-tetrahydro-9H-purin-9-yl)-N-(2-fluoro-3-(morpholine-4-carbonyl)phenyl)acetamide] |  |
| > 25 µM | > 30 µM |  | 197 to 198 °C |  | COc1ccc(C(=O)NC2CCCCCC2)cc1NC(=O)Cn1cnc2c(=O)n(C)c(=O)n(C)c21 [Compound 19l, N-cycloheptyl-3–(2-(1,3-dimethyl-2,6-dioxo-1,2,3,6-tetrahydro-9H-purin-9-yl)acetamido)-4-methoxybenzamide] |  |
| > 25 µM | > 30 µM |  | 270 to 271 °C |  | Cc1ccc(C(=O)N2CCOCC2)cc1NC(=O)Cn1cnc2c(=O)n(C)c(=O)n(C)c21 [Compound 15h, 2–(1,3-dimethyl-2,6-dioxo-1,2,3,6-tetrahydro-9H-purin-9-yl)-N-(2-methyl-5-(morpholine-4-carbonyl)phenyl)acetamide] |  |
| 15.2 ± 3.63 µM | 26.1 ± 3.77 µM |  | 262 to 264 °C |  | Cn1c(=O)c2ncn(CC(=O)Nc3cc(C(=O)N4CCOCC4)ccc3Cl)c2n(C)c1=O [Compound 15j, N-(2-chloro-5-(morpholine-4-carbonyl)phenyl)-2–(1,3-dimethyl-2,6-dioxo-1,2,3,6-tetrahydro-9H-purin-9-yl)acetamide] |  |
| 9.06 ± 1.81 µM | 18.7 ± 3.06 µM |  | 218 to 219 °C |  | Cc1ccc(C(=O)NC2CC2)cc1NC(=O)Cn1cnc2c(=O)n(C)c(=O)n(C)c21 [Compound 19b, N-cyclopropyl-3–(2-(1,3-dimethyl-2,6-dioxo-1,2,3,6-tetrahydro-9H-purin-9-yl)acetamido)-4-methylbenzamide] |  |
| > 25 µM | > 30 µM |  | 231 to 233 °C |  | Cc1ccc(C(=O)N2CCS(=O)(=O)CC2)cc1NC(=O)Cn1cnc2c(=O)n(C)c(=O)n(C)c21 [Compound 15e, 2–(1,3-dimethyl-2,6-dioxo-1,2,3,6-tetrahydro-9H-purin-9-yl)-N-(5–(1,1-dioxidothiomorpholine-4-carbonyl)-2-methylphenyl)acetamide] |  |
| > 25 µM | > 30 µM | without ATAD2 inhibition activity | 246 to 248 °C |  | Cn1c(=O)c2ncn(CC(=O)Nc3cccc(C(=O)N4CCSCC4)c3)c2n(C)c1=O [Compound 15a, 2–(1,3-dimethyl-2,6-dioxo-1,2,3,6-tetrahydro-9H-purin-9-yl)-N-(3-(thiomorpholine-4-carbonyl)phenyl)acetamide] |  |
| 11.3 ± 2.79 µM | 28 ± 3.61 µM |  | 278 to 279 °C |  | COc1ccc(C(=O)N2CCOCC2)cc1NC(=O)Cn1cnc2c(=O)n(C)c(=O)n(C)c21 [Compound 15i, 2–(1,3-dimethyl-2,6-dioxo-1,2,3,6-tetrahydro-9H-purin-9-yl)-N-(2-methoxy-5-(morpholine-4-carbonyl)phenyl)acetamide] |  |
| 9.19 ± 1.9 µM | 21.9 ± 4.03 µM |  | 231 to 233 °C |  | COc1ccc(C(=O)NC2CC2)cc1NC(=O)Cn1cnc2c(=O)n(C)c(=O)n(C)c21 [Compound 19c, N-cyclopropyl-3–(2-(1,3-dimethyl-2,6-dioxo-1,2,3,6-tetrahydro-9H-purin-9-yl)acetamido)-4-methoxybenzamide] |  |
| 19.3 ± 2.35 µM | > 30 µM | weak inhibitory activities against ATAD2 | 251 to 252 °C |  | Cc1ccc(C(=O)N2CCSCC2)cc1NC(=O)Cn1cnc2c(=O)n(C)c(=O)n(C)c21 [Compound 15b, 2–(1,3-dimethyl-2,6-dioxo-1,2,3,6-tetrahydro-9H-purin-9-yl)-N-(2-methyl-5-(thiomorpholine-4-carbonyl)phenyl)acetamide] |  |
